Measurements taken from patent publication US20010049097A1 (priority 1999, published 2001).

How the values were obtained:
[1] = molecular target: T1, mutant T7 Y639F polymerase (Escherichia phage T7, UniProt P00573, Y639F); type: biochemical, T7 bacteriophage; conditions: for effect on nucleotide incorporation: reactions containing 4 rNTPs and no non-canonical nucleotides; for concentration found to increase rate of Y639RNAP-catalyzed transcript extension: more than one rNTP replaced by a non-canonical nucleoside triphosphate; for concentration in excess of which generally inhibitory of activity: reaction with 4 rNTPs and plasmid templates
T1 construct: made in house; host or cells: E. coli BL21 (protease-deficient strain), plasmid pDPT7
T1 sequence (P00573 whole entry Y639F): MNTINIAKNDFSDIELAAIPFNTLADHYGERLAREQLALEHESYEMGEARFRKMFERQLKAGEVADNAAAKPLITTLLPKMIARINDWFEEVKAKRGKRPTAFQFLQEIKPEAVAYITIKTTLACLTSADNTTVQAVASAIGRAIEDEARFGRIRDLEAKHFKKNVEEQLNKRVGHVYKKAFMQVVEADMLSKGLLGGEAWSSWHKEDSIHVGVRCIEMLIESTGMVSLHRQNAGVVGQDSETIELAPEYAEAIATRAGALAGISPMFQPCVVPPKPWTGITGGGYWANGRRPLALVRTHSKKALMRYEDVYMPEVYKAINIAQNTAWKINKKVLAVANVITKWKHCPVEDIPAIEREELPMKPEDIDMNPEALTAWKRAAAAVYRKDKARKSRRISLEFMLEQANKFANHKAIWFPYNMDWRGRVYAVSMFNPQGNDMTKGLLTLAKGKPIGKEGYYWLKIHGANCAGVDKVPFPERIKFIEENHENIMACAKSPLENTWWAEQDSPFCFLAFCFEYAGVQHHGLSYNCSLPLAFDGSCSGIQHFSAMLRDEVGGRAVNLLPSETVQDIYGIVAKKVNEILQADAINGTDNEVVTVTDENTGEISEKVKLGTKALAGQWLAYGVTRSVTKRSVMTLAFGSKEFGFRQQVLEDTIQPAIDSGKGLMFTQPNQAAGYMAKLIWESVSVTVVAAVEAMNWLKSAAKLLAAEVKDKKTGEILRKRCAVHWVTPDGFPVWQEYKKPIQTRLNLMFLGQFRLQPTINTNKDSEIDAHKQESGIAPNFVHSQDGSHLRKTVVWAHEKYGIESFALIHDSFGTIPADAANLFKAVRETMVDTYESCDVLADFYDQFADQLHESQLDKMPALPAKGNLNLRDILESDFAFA
Protocol: In general, transcription reaction mixtures comprised about 40 mM Tris-HCl or 40 mM Tris-Acetate pH 8.0, 5 mM DTT, 5-15 mM MgCl2, 0.1 mCi/ml of alpha-^32P GTP, and various combinations of rNTPs and dNTPs at initial concentrations of 0.5 mM and 1.0 mM, respectively. The reaction mixtures included supercoiled or PvuI-linearized pT75 DNA (10^−8 M) as the template and mutant T7 Y639F polymerase (10^−7 M). Reactions were typically conducted in 50 microliter reaction volumes and incubated at 37° C. Aliquots were removed after 5, 10, and 20 minutes of incubation and the reactions were quenched by adding a solution containing 95% formamide, 20 mM EDTA, 0.01% xylene cyanol. The reaction products were resolved by electrophoresis on denaturing gels containing 6% acrylamide, 0.6% bis-acrylamide, 6 M urea, 1×TBE. The gel was analyzed using a Molecular Dynamics Phosphorimager to determine the rates of incorporation of radioactive GTP into specific transcripts.
To evaluate the effect of A-form stabilizing compounds on polyamines on transcript extension by a mutant T7 RNAP, the activity of the RNAP was evaluated using standard transcription conditions (15 mM MgCl2, 40 mM Tris-HCl pH 8.0, 1 mM EDTA, and 5 mM DTT), or standard transcription reaction conditions plus varying concentrations of ethanol, methanol, trifuoro acteic acid, cobalt hexamine, spermine, or spermidine.
In addition to evaluating A-form stabilizing compounds, we examined the effects of varying the concentration of Mg^2+ and Mn^2+, substituting acetate for chloride as the main reaction counteranion, adding 0.1% tween-20, and adding pyrophosphatase.
With reference to FIG. 1A, reactions in lanes labeled ‘M’ were carried out with wild type polymerase, 4 rNTPs, and either Pvu I- or Hind III-restricted pT75 to generate RNA markers ˜579 or ˜59 bases in length, respectively. Values below each gel lane give the relative rates of synthesis of runoff or long (>˜600 base) transcripts on linearized or supercoiled templates, respectively, normalized to a value of 100 for the 4 rNTP reactions. FIG. 1A compares the relative activities of Y639F in typical polymerase reaction conditions (15 mM MgCl2, 40 mM Tris-HCl pH 8.0, 1 mM EDTA, and 5 mM DTT) and in a modified reaction mixture (40 mM Tris-acetate pH 8.0, 5 mM DTT, 1 mM EDTA, 10 mM Mg-acetate, 0.5 mM MnCl2, 8 mM spermidine, and 1 U/μl pyrophosphatase) in reactions having various combinations of rNTPs and dNTPs with supercoiled or linearized templates.
With reference to FIG. 1B, transcripts were synthesized using Hind III-cut pT75 as the template with 2′-NH2- or 2′-F NTPs as indicated replacing the corresponding rNTPs in the reaction. Reactions were conducted with 8 mM or 0 mM spermidine, as indicated. FIG. 1B compares the activity of Y639F in the presence or absence of spermidine, in reactions with 4 rNTPs or different combinations of rNTPs and 2′-F- or 2′-NH2-NTPs.

Y639F T7RNAP = Y639F T7RNAP (Escherichia phage T7, UniProt P00573, Y639F); conditions: 42 bp template
Y639F T7RNAP, sequence (P00573 whole entry Y639F): as above
Protocol: A 42 base-pair synthetic template carrying a consensus T7 promoter was tested for its effect on Y639F T7RNAP activity by measuring the synthesis of 25 base runoff transcripts in reaction mixtures containing 10 mM MgCl2, 40 mM Tris pH 8.0, 1 mM EDTA, 5 mM DTT, 0.5 mM MnCl2 and either 3 dNTP+rGTP or 4 rNTP reactions (FIG. 2A). […] The polymerase and T7 promoter were included at concentrations of about 10^−7 M. Reaction products were subjected to electrophoresis on denaturing gels containing 20% acrylamide, 2% bis-acrylamide, 6 M urea, 1×TBE.

CO [methanol]
effect on nucleotide incorporation [1]: inhibited

NCCCCNCCCN [spermidine]
concentration found to increase rate of Y639RNAP-catalyzed transcript extension [1]: at least 8 mM | concentration in excess of which generally inhibitory of activity [1]: > 10 mM | effect on nucleotide incorporation [1]: minimal effects at low concentrations and were inhibitory at high concentrations

NCCCNCCCCNCCCN [spermine]
concentration found to increase rate of Y639RNAP-catalyzed transcript extension [1]: at least 1.5 mM | concentration inhibiting transcription ([1]; plasmid pT75 template, all combinations of rNTPs and dNTPs): ≥ 4 mM | concentration in excess of which generally inhibitory of activity [1]: > 1 mM | effect on nucleotide incorporation [1]: minimal effects at low concentrations and were inhibitory at high concentrations | concentration optimum for stimulation of activity ([1]; reactions with non-canonical substrates (3 replaced), plasmid templates): 1 to 2 mM | runoff synthesis relative to 8 mM spermidine (Y639F T7RNAP; 1.6 mM spermine, 3 dNTPs): 2 fold | concentrations shown to be stimulatory (Y639F T7RNAP; reactions with 3 dNTPs): up to 13 mM

N.N.N.N.N.N.[Cl-].[Cl-].[Cl-].[Co+3] [cobalt, cobalt hexamine]
effect on nucleotide incorporation [1]: inhibited

CCO [ethanol]
effect on nucleotide incorporation [1]: inhibited

CO[C@@H]1[C@H](O)[C@@H](COP(=O)(O)OP(=O)(O)OP(=O)(O)O)O[C@H]1n1cnc2c(=O)[nH]c(N)nc21 [2′-O-Me-GTP]
synthesis of 59 base runoff transcripts, lower than in reactions with 4 rNTPs ([1]; Hind-III linearized pT75, modified buffer, single rNTP replaced): eliminated synthesis of runoff transcripts altogether

O=C(O)C(F)(F)F [trifluoroacetic acid]
effect on nucleotide incorporation [1]: inhibited
